Experimental data from article PMC8279484 (Journal of Medicinal Chemistry, 2021).
Like-named read-outs stand apart in the source and are kept apart here.

Assays:
THP-1 LUCIA monocytes = experiment: In vitro safety study: Safety index (Si), activity versus toxicity; format: cell-based, human; conditions: for IC50: Homo sapiens, THP-1, highest IC50 among the LPS-challenged assays (NF-κB activity, cytokine, LDH release), read-out: Extrinsic Activity hIC50; for Safety Index TC50/IC50: ratio of intrinsic TC50 to extrinsic hIC50
Procedure: A postanalysis “safety study” was conducted on all QNX-sLXms. For each tested compound, we calculated an in vitro “Safety index” (Si) by relating its “anti-inflammatory half-maximal activity” (the highest dose among the IC50 of the extrinsic LPS-challenged phenotype: NF-κB activity, proinflammatory cytokine, and LDH release) to its intrinsic “toxicity” (expressed as the relative half-maximal LDH-associated cytotoxicity). The generated Si is potentially predictive of a translational “therapeutic” range: the higher the Si, the safer the molecule is. As summarized in Table S4, Si values from all tested compounds fall in a broad range (7–50).

NF-κB = experiment: LPS-induced NF-κB-driven luciferase gene reporter assay in THP-1 Lucia monocytes; format: cell-based, human; conditions: for Rel. Slope: HS relative to LXA4 (1); for IC50: Homo sapiens, THP-1; for Potency Rel. Pot.: IC50 relative to LXA4 (1); for Efficacy Rel. Eff.: Imax relative to LXA4 (1); for Imax (%): maximal % inhibition of LPS (50 ng/mL)-stimulated NF-κB luciferase activity, 30 min pretreatment; for Imax (%) / reduction of LPS-induced NF-κB-driven luciferase activity: 1 pM–1 μM; for (Single component) Rel. Score: Rel. Pot. / (Single component) Rel. Score: Rel. Sl.: score relative to LXA4 (1); for reduction of LPS-induced NF-κB-driven luciferase activity: approximate extent; for Slope HS (Hill–Slope): slope of concentration–response curve; for (Aggregate) Rel. PD Score: sum of efficacy, potency, slope scores relative to LXA4 (1)
Procedure: Mycoplasma-free THP-1-Lucia NF-κB cells were grown in an RPMI 1640 (Gibco) medium containing 2 mM L-glutamine, 1.50 g/L sodium bicarbonate, 4.50 g/L glucose, 10 mM N-(2-hydroxyethyl)piperazine-N′-ethanesulfonic acid (HEPES), and 1 mM sodium pyruvate. Then, 10% heat-inactivated fetal bovine serum (FBS) (30 min at 56 °C), 100 μg/mL Normocin, and Pen-Strep (50 U/mL to 50 μg/mL) were also added to the growth media. As THP-1-Lucia cells were resistant to Zeocin, the latter was used as a selective antibiotic (a high dose, i.e., 100 μg/mL, was alternated every 2 weeks with a low dose, i.e., 10 μg/mL).
LXA41 and all of the tested sLXms were dissolved in ethanol and further diluted in a culture medium (final ethanol concentration 0.1%; equivalent concentrations were used as the vehicle control). Prior to in vitro experiments, THP-1-Lucia NF-κB cells were harvested and plated at 1 × 10^5 cells/well on 96-well plates and left to settle in the incubator at 37 °C, 95% humidity, and 5% CO2, in 0.1% FBS-containing media, pretreated for 30 min with increasing doses of LXA41, sLXms (from 10^–12 to 10^–6 M), or appropriate controls, followed by stimulation with 50 ng/mL LPS for 24 h.
NFκB activity was monitored in the human THP-1 monocytic leukemia cell line containing a stably integrated NF-κB-inducible Lucia reporter construct (as previously reported).[21] When stimulated with LPS, the transcription factor NF-κB is activated, upregulating the synthesis of proinflammatory mediators, thus bringing about an inflammatory response. In these cells, NF-κB activation is linked to a […] luciferase gene and can be measured using luminescence.
Heat-killed listeria monocytogenes (HKLM) (10^8/mL) was used as a positive control.[28] The levels of NF-κB-induced Luciferase were then measured in a culture supernatant using QUANTI-Luc as the detection reagent, and measurements were taken on a bioluminescence reader.
After 24 h, the levels of NF-κB-induced Lucia were assayed in a cell culture supernatant using QUANTI-Luc, as a detection reagent, on a bioluminescence reader (Synergy HT, BioTek Instruments, Inc. Vermont). Aliquots of the supernatant were retained for subsequent cytokine and LDH assays. Cellular proteins were extracted with a radioimmunoprecipitation assay (RIPA) buffer (Thermo Fisher, Ireland), supplemented with protease inhibitors (Sigma-Aldrich, Ireland). Lysates were clarified by centrifugation (3200g, 10’, 4 °C) to remove cell debris, and the cell protein level was quantified by performing a bicinchoninic acid (BCA) assay (as per the manufacturer’s instructions) reading the protein absorbance at 570 nm, using a spectrophotometer (SPECTRAMAX M2, Molecular Devices (U.K.) Limited). A “relative luminescence unit” (RLU) was obtained using the average value of the lum/abs ratio of two replicates.
The “coding” of the heat-map indicates the arbitrary criteria to assign points to each single PD component (efficacy = Imax or Emax; potency = IC50 or EC50; slope = HS) to generate a final (aggregate) relative PD score. […] If a single PD component was equal to the reference level (x = 1), then the single-component relative score was arbitrarily set to 0 (gray). If a single PD component was smaller than the reference level (x < 1), then the single-component relative score was arbitrarily set to −1 (light red) or −2 (dark red). If the curve of a single PD component was best fitting to a flat line (x = 0), then the single-component relative score was arbitrarily set to −4 (purple) (Table S1).

[1] = LPS 50 ng/mL, 24 h, read-out: Potency IC50

SMILES | IC50 (THP-1 LUCIA monocytes) [nM] | Safety Index TC50/IC50 (THP-1 LUCIA monocytes) | Rel. Slope (NF-κB) | IC50 (NF-κB; LPS 50 ng/mL, 24 h, read-out: IC50) [nM] | Potency Rel. Pot. (NF-κB) | Efficacy Rel. Eff. (NF-κB) | Imax (%) (NF-κB; 24 h) | (Single component) Rel. Score: Rel. Pot. (NF-κB) | (Single component) Rel. Score: Rel. Sl. (NF-κB) | IC50 (NF-κB; [1]) [nM] | IC50 (range in words) (NF-κB; LPS 50 ng/mL, 24 h) | reduction of LPS-induced NF-κB-driven luciferase activity (NF-κB) | Slope HS (Hill–Slope) (NF-κB) | (Aggregate) Rel. PD Score (NF-κB)
CCCCC[C@@H](O)c1nc2ccccc2nc1/C=C/[C@@H](O)[C@@H](O)CCCC(=O)OC [(R)-6, Methyl (5S,6R,E)-5,6-Dihydroxy-8-(3-((R)-1-hydroxyhexyl)quinoxalin-2-yl)oct-7-enoate] | 0.025 | 20 | 57 | 0.025 | 2.4 | 1.58 | 38 ± 9 | 1 (1 < x < 5) | 2 (x ≥ 10) |  |  |  |  | 
CCCCCCC[C@H](O)c1nc2ccccc2nc1/C=C/[C@@H](O)[C@@H](O)CCCC(=O)OC [(S)-8, Methyl (5S,6R,E)-5,6-Dihydroxy-8-(3-((S)-1-hydroxyoctyl)quinoxalin-2-yl)oct-7-enoate] | 0.01 | 10 | 0 |  | 6 | 0.96 | 23 ± 8 | 2 (x ≥ 5) | -4 (x = 0) | 0.01 | “pM” range | 10–20% | 0 | -2
CCCCC[C@H](O)/C=C/C=C\C=C\C=C\[C@@H](O)[C@@H](O)CCCC(=O)O [Compound 1, LXA4] |  |  | 1 |  | 1 | 1 | 24 ± 1 |  |  |  |  |  |  | 
CCCCC[C@@H](O)c1c(/C=C/[C@@H](O)[C@@H](O)CCCC(=O)OC)nc(C)n1C [Compound 5, imidazolo-LXA4] |  |  | -9 |  | 300 | 1.83 | 44 ± 9 | 2 (x ≥ 5) | 1 (1 < x < 10) |  |  |  | 90 | 5
CCCCC[C@@H](O)c1nc2ccccc2nc1/C=C/[C@H]1OC(C)(C)O[C@H]1CCCC(=O)OC [(R)-17, Methyl 4-((4S,5R)-5-((E)-2-(3-((R)-1-Hydroxyhexyl)quinoxalin-2-yl)vinyl)-2,2-dimethyl-1,3-dioxolan-4-yl)butanoate] | 0.01 | 10 | 0 |  | 60 | 0.75 | 18 ± 7 | 2 (x ≥ 5) | -4 (x = 0) | 0.001 |  | least effective | 0 | -3
